Measurements published in patent publication US12403160B2, “Injection composition containing isolated mitochondria, and use thereof” (Paean Biotechnology Inc., priority 2020, dated 2025).

Tests used:
platelets = system: platelets
Procedure: After treatment, the resultant was incubated with shaking at 100 rpm at 37° C. for one hour.

[1] = system: platelets isolated from pig whole blood; experiment: Effect of storage solvent for mitochondria and antithrombotic agent on platelet aggregation; type: cell-based
Procedure: Pig whole blood was centrifuged at 300×g for 5 minutes to obtain a cloudy yellow supernatant containing platelets and plasma. […] The obtained platelet precipitate was replaced with an equal amount of Dulbecco's phosphate-buffered saline (DPBS) solution, washed by centrifugation at 1,500×g for 15 minutes, and resuspended in an equal amount of a fresh DPBS solution.
In order to confirm the effect of a storage solvent for mitochondria and an antithrombotic agent on inhibition of platelet aggregation, the mitochondria of human umbilical cord-derived mesenchymal stem cells (UC-hMSC) were isolated and stored in saline and SHE solution, which is a storage solvent, for one hour, respectively, and the resultant was treated with the platelets isolated from pig whole blood and then treated with heparin. After 1 hour, the result was confirmed with a confocal laser scanning microscope.

platelets in the blood = experiment: Number of platelets in the blood after intravenous injection of mitochondria; type: in vivo, BALB/c-nu/nu mice; settings: UC-hMSC mitochondria 50 μg/0.3 mL, single intravenous injection, mice
Procedure: The specific experimental design, which was performed so as to confirm the effect of reducing the number of platelets during intravascular injection of mitochondria into mice, is as shown in Table 2 below.

Compound	glycine concentration at which mitochondria-induced platelet aggregation is inhibited (platelets; 1 μg UC-hMSC mitochondria in 10 μL Tris-trehalose buffer with glycine 0-100 mM, 1 mL platelet solution, 37° C., one hour) [mM]	inhibition of mitochondria-induced platelet aggregation at low glycine concentration (platelets; low concentration of glycine in Tris-trehalose buffer)	inhibition of mitochondria-induced platelet aggregation with rising concentration of antithrombotic agent ([1]; UC-hMSC mitochondria stored in SHE solution)	inhibition of mitochondria-induced platelet aggregation by antithrombotic agent ([1]; UC-hMSC mitochondria stored in saline and SHE solution, pig platelets)	change in the number of platelets in the blood (platelets in the blood)
NCC(=O)O [glycine]	≥ 25	could not inhibit platelet aggregation	–	–	–
heparin	–	–	inhibited as the concentrations of heparin as an antithrombotic agent increased	partially inhibited	recovered to some extent, but the decrease in platelets was not completely inhibited
